# Starred links: 1 amine or outer side, 2 acyl side, 3 side chain; linkers in the order of their positions; H or OH if unused. Non-standard residues stand in square brackets, D forms with d. Residues, ends and D or L forms follow the SMILES beside them. Groups on a side chain read outwards from the residue. *: point of attachment. X1 = CCCCCCCCCCCCCCCC(=O)N[C@@H](CCC(=O)N[C@@H](CCC(=O)N[C@@H](CCC(=O)NCCCOCCOCCOCCCNC(=O)CCC(=O)NCCCOCCOCCOCCCNC(=O)CCC(=O)NCCCOCCOCCOCCCN*)C(=O)O)C(=O)O)C(=O)O; Suc = O=C(CCC(=O)[*:2])[*:1]; αMeK = C[C@](N)(CCCCN)C(=O)O; Aib = CC(C)(N)C(=O)O
# Target: T1, RXFP1 (Homo sapiens, UniProt Q9HBX9)
# T1 construct: OVCAR5 cells expressing endogenous RXFP1; endogenous in cells; host or cells: OVCAR5
# T1 sequence (Q9HBX9 1-757): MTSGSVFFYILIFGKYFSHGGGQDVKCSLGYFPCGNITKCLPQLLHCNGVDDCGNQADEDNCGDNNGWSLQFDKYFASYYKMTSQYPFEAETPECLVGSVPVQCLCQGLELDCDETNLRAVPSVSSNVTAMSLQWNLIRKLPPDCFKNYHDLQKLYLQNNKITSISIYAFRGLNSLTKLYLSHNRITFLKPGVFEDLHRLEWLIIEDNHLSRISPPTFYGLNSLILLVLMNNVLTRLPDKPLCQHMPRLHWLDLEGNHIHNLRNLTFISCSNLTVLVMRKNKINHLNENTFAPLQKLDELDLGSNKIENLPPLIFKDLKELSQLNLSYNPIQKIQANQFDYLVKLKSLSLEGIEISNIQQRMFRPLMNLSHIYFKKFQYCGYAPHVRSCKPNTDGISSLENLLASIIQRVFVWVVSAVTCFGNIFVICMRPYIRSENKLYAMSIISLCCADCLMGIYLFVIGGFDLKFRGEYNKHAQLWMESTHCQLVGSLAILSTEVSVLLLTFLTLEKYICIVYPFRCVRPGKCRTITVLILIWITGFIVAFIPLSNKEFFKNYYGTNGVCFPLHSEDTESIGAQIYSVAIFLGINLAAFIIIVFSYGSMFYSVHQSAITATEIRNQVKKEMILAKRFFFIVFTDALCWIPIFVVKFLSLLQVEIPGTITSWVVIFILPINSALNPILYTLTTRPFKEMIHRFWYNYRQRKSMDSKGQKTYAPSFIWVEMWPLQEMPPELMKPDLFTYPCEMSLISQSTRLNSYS
# Assay: OVCAR5 cAMP assay (HTRF)
# Type: cell-based
# Conditions: for Emax: OVCAR 5 cells, maximal cAMP relative to H2-relaxin; for EC50: OVCAR 5 cells expressing endogenous RXFP1, cAMP readout
# How it was run: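 Peptide agonism measured as intracellular cAMP (HTRF) after 30 min at 37° C in serum-free medium, following 40 min 1 mM IBMX preincubation of OVCAR5 cells. Nonlinear regression gave EC50; Emax % = 100 × compound maximal cAMP / H2-relaxin maximal cAMP.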
Emax [%],EC50 [nM],Structure (SMILES)
95,,CCCCCCCCCCCCCCCC(=O)N[C@@H](CCC(=O)N[C@@H](CCC(=O)N[C@@H](CCC(=O)NCCCOCCOCCOCCCNC(=O)CCC(=O)NCCCOCCOCCOCCCNC(=O)CCC(=O)NCCCOCCOCCOCCCNC(=O)CCC(=O)NCCCC[C@H](NC(=O)CNC(=O)[C@H](CCC(=O)O)NC(=O)C(C)(C)NC(=O)C(C)(C)NC(=O)[C@@H](NC(=O)[C@H](CCCCNC(C)=O)NC(=O)C(C)(C)NC(=O)[C@H](CCCNC(=N)N)NC(=O)[C@@H](NC(=O)[C@H](CCCCN)NC(=O)[C@H](CCC(=O)O)NC(=O)[C@H](CCCNC(=N)N)NC(=O)CNC(=O)[C@H](CCC(=O)O)NC(=O)[C@H](CC(C)C)NC(C)=O)C(C)C)[C@@H](C)CC)C(=O)N[C@@H](CO)C(=O)N[C@H](C(=O)N[C@@H](Cc1c[nH]c2ccccc12)C(=O)N[C@@H](CO)C(=O)NC(C)(C)C(=O)N[C@@H](CCCNC(=N)N)C(=O)N[C@@H](CCCCN)C(=O)N[C@@H](CCCCNC(C)=O)C(N)=O)[C@@H](C)O)C(=O)O)C(=O)O)C(=O)O [compound 82] (Ac-LEGREKVR[Aib]K(Ac)I[Aib][Aib]EGK([Suc-X1])STWS[Aib]RKK(Ac)-NH2)
94,0.25,CCCCCCCCCCCCCCCC(=O)N[C@@H](CCC(=O)N[C@@H](CCC(=O)N[C@@H](CCC(=O)NCCCOCCOCCOCCCNC(=O)CCC(=O)NCCCOCCOCCOCCCNC(=O)CCC(=O)NCCCOCCOCCOCCCNC(=O)CCC(=O)NCCCC[C@H](NC(=O)CNC(=O)[C@H](CCC(=O)O)NC(=O)C(C)(C)NC(=O)C(C)(C)NC(=O)[C@@H](NC(=O)[C@H](CCCCNC(C)=O)NC(=O)[C@H](C)NC(=O)[C@H](CCCNC(=N)N)NC(=O)[C@@H](NC(=O)[C@H](CCCCN)NC(=O)[C@H](CCC(=O)O)NC(=O)[C@H](CCCNC(=N)N)NC(=O)CNC(=O)[C@H](CCC(=O)O)NC(=O)[C@H](CC(C)C)NC(C)=O)C(C)C)[C@@H](C)CC)C(=O)N[C@@H](CO)C(=O)N[C@@H](CCCCN)C(=O)N[C@@H](Cc1c[nH]c2ccccc12)C(=O)N[C@@H](CO)C(=O)NC(C)(C)C(=O)N[C@@H](CCCNC(=N)N)C(=O)N[C@@H](CCCCN)C(=O)N[C@@H](CCCCNC(C)=O)C(N)=O)C(=O)O)C(=O)O)C(=O)O [compound 83] (Ac-LEGREKVRAK(Ac)I[Aib][Aib]EGK([Suc-X1])SKWS[Aib]RKK(Ac)-NH2)
92,0.3,CCCCCCCCCCCCCCCC(=O)N[C@@H](CCC(=O)N[C@@H](CCC(=O)N[C@@H](CCC(=O)NCCCOCCOCCOCCCNC(=O)CCC(=O)NCCCOCCOCCOCCCNC(=O)CCC(=O)NCCCOCCOCCOCCCNC(=O)CCC(=O)NCCCC[C@H](NC(=O)CNC(=O)[C@H](CCC(=O)O)NC(=O)C(C)(C)NC(=O)C(C)(C)NC(=O)[C@@H](NC(=O)[C@H](CCCCNC(C)=O)NC(=O)C(C)(C)NC(=O)[C@H](CCCNC(=N)N)NC(=O)[C@@H](NC(=O)[C@H](CCCNC(=N)N)NC(=O)[C@H](CCC(=O)O)NC(=O)[C@H](CCCNC(=N)N)NC(=O)CNC(=O)[C@H](CCC(=O)O)NC(=O)[C@H](CC(C)C)NC(C)=O)C(C)C)[C@@H](C)CC)C(=O)N[C@@H](CO)C(=O)N[C@H](C(=O)N[C@@H](Cc1c[nH]c2ccccc12)C(=O)N[C@@H](CO)C(=O)NC(C)(C)C(=O)N[C@@H](CCCNC(=N)N)C(=O)N[C@@H](CCCNC(=N)N)C(=O)N[C@@H](CCCCNC(C)=O)C(N)=O)[C@@H](C)O)C(=O)O)C(=O)O)C(=O)O [compound 85] (Ac-LEGRERVR[Aib]K(Ac)I[Aib][Aib]EGK([Suc-X1])STWS[Aib]RRK(Ac)-NH2)

# Second part, the molecule before the results:
Structure (SMILES),Emax [%],EC50 [nM]
CCCCCCCCCCCCCCCC(=O)N[C@@H](CCC(=O)N[C@@H](CCC(=O)N[C@@H](CCC(=O)NCCCOCCOCCOCCCNC(=O)CCC(=O)NCCCOCCOCCOCCCNC(=O)CCC(=O)NCCCOCCOCCOCCCNC(=O)CCC(=O)NCCCC[C@H](NC(=O)CNC(=O)[C@H](CCC(=O)O)NC(=O)[C@@H](NC(=O)C(C)(C)NC(=O)[C@@H](NC(=O)[C@H](CCCCNC(C)=O)NC(=O)[C@H](C)NC(=O)[C@H](CCCNC(=N)N)NC(=O)[C@@H](NC(=O)[C@H](CCCCN)NC(=O)[C@H](CCC(=O)O)NC(=O)[C@H](CCCNC(=N)N)NC(=O)CNC(=O)[C@H](CCC(=O)O)NC(=O)[C@H](CC(C)C)NC(C)=O)C(C)C)[C@@H](C)CC)[C@@H](C)CC)C(=O)N[C@@H](CO)C(=O)N[C@H](C(=O)N[C@@H](Cc1ccccc1)C(=O)N[C@@H](CO)C(=O)N[C@@](C)(CCCCN)C(=O)N[C@@H](CCCNC(=N)N)C(=O)N[C@@H](C)C(=O)N[C@@H](CCCCNC(C)=O)C(N)=O)[C@@H](C)O)C(=O)O)C(=O)O)C(=O)O [compound 84] (Ac-LEGREKVRAK(Ac)I[Aib]IEGK([Suc-X1])STFS[αMeK]RAK(Ac)-NH2),95,0.1
CCCCCCCCCCCCCCCC(=O)N[C@@H](CCC(=O)N[C@@H](CCC(=O)N[C@@H](CCC(=O)NCCCOCCOCCOCCCNC(=O)CCC(=O)NCCCOCCOCCOCCCNC(=O)CCC(=O)NCCCOCCOCCOCCCNC(=O)CCC(=O)NCCCC[C@H](NC(=O)CNC(=O)[C@H](CCC(=O)O)NC(=O)[C@@H](NC(=O)C(C)(C)NC(=O)[C@@H](NC(=O)[C@H](CCCCNC(C)=O)NC(=O)[C@H](C)NC(=O)[C@H](CCCNC(=N)N)NC(=O)[C@@H](NC(=O)[C@H](CCCCN)NC(=O)[C@H](CCC(=O)O)NC(=O)[C@H](CCCNC(=N)N)NC(=O)CNC(=O)[C@H](CCC(=O)O)NC(=O)C(C)(C)NC(C)=O)C(C)C)[C@@H](C)CC)[C@@H](C)CC)C(=O)N[C@@H](CO)C(=O)N[C@H](C(=O)N[C@@H](Cc1ccccc1)C(=O)N[C@@H](CO)C(=O)N[C@@](C)(CCCCN)C(=O)N[C@@H](CCCNC(=N)N)C(=O)N[C@@H](C)C(=O)N[C@@H](CCCCNC(C)=O)C(N)=O)[C@@H](C)O)C(=O)O)C(=O)O)C(=O)O [compound 86] (Ac-[Aib]EGREKVRAK(Ac)I[Aib]IEGK([Suc-X1])STFS[αMeK]RAK(Ac)-NH2),95,0.3
CCCCCCCCCCCCCCCC(=O)N[C@@H](CCC(=O)N[C@@H](CCC(=O)N[C@@H](CCC(=O)NCCCOCCOCCOCCCNC(=O)CCC(=O)NCCCOCCOCCOCCCNC(=O)CCC(=O)NCCCOCCOCCOCCCNC(=O)CCC(=O)NCCCC[C@H](NC(=O)CNC(=O)[C@H](CCC(=O)O)NC(=O)C(C)(C)NC(=O)C(C)(C)NC(=O)[C@@H](NC(=O)[C@H](CCCCNC(C)=O)NC(=O)[C@H](C)NC(=O)[C@H](CCCNC(=N)N)NC(=O)[C@@H](NC(=O)[C@H](CCCCN)NC(=O)[C@H](CCC(=O)O)NC(=O)[C@H](CCCNC(=N)N)NC(=O)CNC(=O)[C@H](CCC(=O)O)NC(=O)[C@H](CC(C)C)NC(C)=O)C(C)C)[C@@H](C)CC)C(=O)N[C@@H](CO)C(=O)N[C@H](C(=O)N[C@@H](Cc1ccccc1)C(=O)N[C@@H](CO)C(=O)N[C@@H](CCCNC(=N)N)C(=O)N[C@@H](CCCNC(=N)N)C(=O)N[C@@H](C)C(=O)N[C@@H](CCCCNC(C)=O)C(N)=O)[C@@H](C)O)C(=O)O)C(=O)O)C(=O)O [compound 87] (Ac-LEGREKVRAK(Ac)I[Aib][Aib]EGK([Suc-X1])STFSRRAK(Ac)-NH2),96,0.1
